Test results published in article PMC2988971 (Journal of medicinal chemistry, 2010).
Structures can show the parent of a compound that is named as a salt. Where two headings read alike, the source gives them in different places.

How the values were obtained:
[1] = system: HS 578T; assay: NCI 60 cell line panel tumor cell growth inhibition; conditions: Homo sapiens
[2] = system: MDA-MB-435; assay: as above; conditions: Homo sapiens
[3] = system: SK-MEL-5; assay: as above; conditions: Homo sapiens
[4] = system: OVCAR-3; assay: as above; conditions: Homo sapiens
[5] = molecular target: tubulin (colchicine site) (Bos taurus, UniProt P81947+Q6B856); assay: Inhibition of [3H]colchicine binding to tubulin; set-up: species or system bovine; conditions: read-out: Inhibition of colchicine binding % Inhibition ± SD
tubulin (colchicine site), sequence (Q6B856 whole entry): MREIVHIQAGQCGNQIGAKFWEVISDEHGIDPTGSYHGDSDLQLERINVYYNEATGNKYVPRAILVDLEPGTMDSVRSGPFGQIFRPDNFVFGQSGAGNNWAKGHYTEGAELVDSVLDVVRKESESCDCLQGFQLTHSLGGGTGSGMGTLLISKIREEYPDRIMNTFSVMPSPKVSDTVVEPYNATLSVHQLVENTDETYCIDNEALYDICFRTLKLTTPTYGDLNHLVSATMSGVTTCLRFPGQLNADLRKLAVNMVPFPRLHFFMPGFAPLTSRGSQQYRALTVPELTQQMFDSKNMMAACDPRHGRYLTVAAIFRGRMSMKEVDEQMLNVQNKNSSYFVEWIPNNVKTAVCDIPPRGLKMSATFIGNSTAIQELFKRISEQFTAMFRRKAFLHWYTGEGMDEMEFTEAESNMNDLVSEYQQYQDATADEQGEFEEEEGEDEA
tubulin (colchicine site), sequence (P81947 whole entry): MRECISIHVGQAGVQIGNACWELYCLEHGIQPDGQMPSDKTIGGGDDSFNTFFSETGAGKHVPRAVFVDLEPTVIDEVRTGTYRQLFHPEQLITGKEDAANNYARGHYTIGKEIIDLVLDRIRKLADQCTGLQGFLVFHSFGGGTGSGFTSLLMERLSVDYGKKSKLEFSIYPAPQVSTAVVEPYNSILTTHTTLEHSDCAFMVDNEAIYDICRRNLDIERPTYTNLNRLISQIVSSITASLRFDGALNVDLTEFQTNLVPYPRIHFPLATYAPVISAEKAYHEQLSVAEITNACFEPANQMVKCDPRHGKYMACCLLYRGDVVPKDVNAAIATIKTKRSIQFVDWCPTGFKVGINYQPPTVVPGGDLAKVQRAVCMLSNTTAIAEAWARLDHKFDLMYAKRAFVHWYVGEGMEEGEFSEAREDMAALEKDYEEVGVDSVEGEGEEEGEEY

[6] = system: RXF 393; assay: NCI 60 cell line panel tumor cell growth inhibition; conditions: Homo sapiens
[7] = system: SK-OV-3; assay: SRB antiproliferative assay, parental line of Pgp isogenic pair; assay type: cell-based; conditions: Homo sapiens, SK-OV-3, read-out: IC50 (SD) SK-OV-3
[8] = system: MDA-MB-435 cells; assay: Sulforhodamine B; assay type: cell-based
[9] = system: NCI-H522; assay: NCI 60 cell line panel tumor cell growth inhibition; conditions: Homo sapiens
[10] = system: A-10 cells; assay: Effects on cellular microtubules; assay type: cell-based; conditions: for Effect on interphase microtubules: 18 h, cell-based phenotypic screen, Fig. 3
[11] = system: SK-MEL-28; assay: NCI 60 cell line panel tumor cell growth inhibition; conditions: Homo sapiens
[12] = system: K-562; assay: as above; conditions: Homo sapiens, K562
[13] = system: SW-620; assay: as above; conditions: Homo sapiens
[14] = system: NCI/ADR-RES; assay: as above; conditions: Homo sapiens
[15] = system: KM12; assay: as above; conditions: Homo sapiens
[16] = system: WT βIII; assay: SRB antiproliferative assay, βIII-tubulin expressing line; assay type: cell-based; conditions: for Rr (relative resistance), effect of βIII-tubulin on drug sensitivity: IC50 of the WT βIII cell line divided by IC50 of the parental HeLa cells
[17] = system: MCF7; assay: NCI 60 cell line panel tumor cell growth inhibition; conditions: Homo sapiens
[18] = system: SK-OV-3 MDR-1-6/6; assay: SRB antiproliferative assay, Pgp overexpressing; assay type: cell-based; conditions: Homo sapiens, SK-OV-3, read-out: IC50 (SD) SK-OV-3 MDR-1-6/6
[19] = system: MDA-MB-435 cells; assay: Cell cycle analysis by flow cytometry; assay type: cell-based; conditions: MDA-MB-435, 24 h, 850 nM 1, 45 nM (±)-3•HCl
[20] = system: SF-295; assay: NCI 60 cell line panel tumor cell growth inhibition; conditions: Homo sapiens
[21] = system: HeLa; assay: SRB antiproliferative assay, parental line of βIII-tubulin isogenic pair; assay type: cell-based; conditions: Homo sapiens, read-out: IC50 (SD) HeLa
[22] = system: HL-60(TB); assay: NCI 60 cell line panel tumor cell growth inhibition; assay type: cell-based; conditions: Homo sapiens
[23] = system: SR; assay: as above; conditions: Homo sapiens
[24] = system: purified bovine brain tubulin; assay: In vitro tubulin polymerization; assay type: biochemical; conditions: initial study, Fig. 5; 10% glycerol, 3 mg/mL purified tubulin, 10 mM GTP
[25] = system: SNB-75; assay: NCI 60 cell line panel tumor cell growth inhibition; conditions: Homo sapiens
[26] = molecular target: Bovine brain tubulin (Bos taurus, UniProt P81947+Q6B856); assay: Quantitative inhibition of tubulin assembly; assay type: biochemical
Bovine brain tubulin, sequence (Q6B856 whole entry): as the sequence (Q6B856 whole entry) above
Bovine brain tubulin, sequence (P81947 whole entry): as the sequence (P81947 whole entry) above

[27] = system: A498; assay: NCI 60 cell line panel tumor cell growth inhibition; conditions: Homo sapiens
[28] = system: UACC-62; assay: as above; conditions: Homo sapiens
[29] = system: MDA-MB-468; assay: as above; conditions: Homo sapiens
[30] = system: 60 cancer cell lines; assay: NCI 60 tumor cell line panel, summary over the panel
[31] = system: HCT-15; assay: NCI 60 cell line panel tumor cell growth inhibition; conditions: Homo sapiens
[32] = Homo sapiens, MDA-MB-435, read-out: IC50±SD (MDA-MB-435)

Question: Which GI50 [1] does the source give for `COc1ccc(N(C)c2nc(C)nc3c2CC(C)C3)cc1.Cl` (racemic) [(±)-3•HCl, N-(4-Methoxyphenyl)-N,2,6-trimethyl-6,7-dihydro-5H-cyclopenta[d]pyrimidin-4-aminium chloride] here?
Answer: < 10 nM

Question: What about the GI50 [2] of the same compound?
Answer: < 10 nM

Question: What about the GI50 [3] of the same compound?
Answer: < 10 nM

Question: What about the GI50 [4] of the same compound?
Answer: < 10 nM

Question: And the inhibition at 1 µM [5]?
Answer: 60 ± 2%

Question: What about the inhibition at 5 µM [5] of the same compound?
Answer: 84 ± 3%

Question: What about the GI50 [6] of the same compound?
Answer: < 10 nM

Question: And the IC50 [7]?
Answer: 38.6 ± 3.1 nM

Question: What about the IC50 [8, 32] of the same compound?
Answer: 17 ± 0.7 nM

Question: And the GI50 [9]?
Answer: < 10 nM

Question: What about the “Effect on interphase microtubules” value ([10]; A-10 cells) of the same compound?
Answer: dramatic reorganization of the interphase microtubule network

Question: And the GI50 [11]?
Answer: < 10 nM

Question: What about the GI50 [12] of the same compound?
Answer: < 10 nM

Question: What about the GI50 [13] of the same compound?
Answer: < 10 nM

Question: What about the GI50 [14] of the same compound?
Answer: < 10 nM

Question: What about the GI50 [15] of the same compound?
Answer: < 10 nM

Question: And the “Rr (relative resistance), effect of βIII-tubulin on drug sensitivity” value (“Rr (relative resistance), effect” for short) [16]?
Answer: 0.6–0.7

Question: What about the “Rr (relative resistance), effect” value ([16]; listed as (±)-3•HCI) of the same compound?
Answer: 0.6

Question: What about the IC50 ([16]; read-out: IC50 (SD) WT βIII) of the same compound?
Answer: 23.9 ± 1.7 nM

Question: What about the GI50 [17] of the same compound?
Answer: < 10 nM

Question: What about the IC50 [18] of the same compound?
Answer: 44.4 ± 3.2 nM

Question: What about the “Cell cycle effect” value [19] of the same compound?
Answer: mitotic accumulation

Question: What about the GI50 [20] of the same compound?
Answer: < 10 nM

Question: What about the IC50 [21] of the same compound?
Answer: 37.3 ± 4.1 nM

Question: And the GI50 [22]?
Answer: < 10 nM

Question: What about the GI50 [23] of the same compound?
Answer: < 10 nM

Question: And the “Effect on polymerization of purified tubulin” value [24]?
Answer: potent inhibitors of purified tubulin assembly

Question: What about the GI50 [25] of the same compound?
Answer: < 10 nM

Question: And the IC50 [26]?
Answer: 1900 ± 10 nM

Question: And the GI50 [27]?
Answer: < 10 nM

Question: What about the GI50 [28] of the same compound?
Answer: < 10 nM

Question: And the GI50 [29]?
Answer: < 10 nM

Question: And the GI50 [30]?
Answer: < 30 nM

Question: And the GI50 [31]?
Answer: < 10 nM

Question: With `Cc1nc2c(c(N(C)c3ccccc3)n1)CC(C)C2` (racemic) [(±)-7•HCl, N-Phenyl-N,2,6-trimethyl-6,7-dihydro-5H-cyclopenta[d]pyrimidin-4-aminium chloride] as the compound, how does the IC50 [8, 32] read?
Answer: 2700 ± 300 nM

Question: What does the source list for “N-(4-Methoxyphenyl)-2,6-dimethyl-6,7-dihydro-5H-cyclopenta[d]pyrimidin-4-amine [(±)-4]”?
Answer: IC50 ([8]; read-out: IC50±SD (MDA-MB-435), inhibition of proliferation, SRB assay): > 10000 nM; EC50 ([10]; read-out: EC50 for microtubule depolymerization, concentration required to cause 50% loss of cellular microtubules, A-10 cells): > 40000 nM

Question: With `COc1ccc(/C=C\c2cc(OC)c(OC)c(OC)c2)cc1OP(=O)(O)O` [CA4P, combretastatin A-4 phosphate, reference compound] as the compound, how does the inhibition at 1 µM [5] read?
Answer: 88 ± 2%

Question: And the inhibition at 5 µM [5]?
Answer: 99 ± 0.2%

Question: And the IC50 [26]?
Answer: 1000 ± 90 nM

Question: How did the “Activity” value ([10]; Table 2 data, 2′-OCH3 analog) turn out when `COc1ccccc1N(C)c1nc(C)nc2c1CC(C)C2.Cl` (racemic) [(±)-6•HCl, N-(2-Methoxyphenyl)-N,2,6-trimethyl-6,7-dihydro-5H-cyclopenta[d]pyrimidin-4-aminium chloride] was run?
Answer: inactive

Question: `COc1cccc(N(C)c2nc(C)nc3c2CC(C)C3)c1.Cl` (racemic) [(±)-5•HCl, N-(3-Methoxyphenyl)-N,2,6-trimethyl-6,7-dihydro-5H-cyclopenta[d]pyrimidin-4-aminium chloride] was tested. Which IC50 [8, 32] did it give?
Answer: 153 ± 11.1 nM

Question: What about the “fold less potent than (±)-3•HCl” value ([8]; comparison of 3′-OCH3 with 4′-OCH3 analog, Table 2) of the same compound?
Answer: about 9 fold

Question: For `COc1ccc(N(C)c2nc(C)nc3[nH]ccc23)cc1` [Compound 1, N-(4-Methoxyphenyl)-N,2-dimethyl-7H-pyrrolo[2,3-d]pyrimidin-4-amine], which “Effect on interphase microtubules” value ([10]; A-10 cells) is on record?
Answer: dramatic reorganization of the interphase microtubule network

Question: What about the “Rr (relative resistance), effect” value [16] of the same compound?
Answer: 0.6–0.7

Question: And the “Cell cycle effect” value [19]?
Answer: mitotic accumulation

Question: And the “Effect on polymerization of purified tubulin” value [24]?
Answer: potent inhibitors of purified tubulin assembly

Question: What about the IC50 [26] of the same compound?
Answer: 2600 ± 50 nM

Question: What about the GI50 [30] of the same compound?
Answer: < 500 nM
